Test results taken from patent US10751358B2, “Multitargeted nucleoside derivatives” (priority 2017, dated 2020).

How the values were obtained:
[1] = biological target: T1, DNA polymerase alpha (Pol α) (Homo sapiens, UniProt P09884); assay: Enzyme inhibition by intracellular metabolites: DNA polymerase alpha; type: biochemical; details: major target; inhibition by DNA chain termination and/or DNA fragmentation
T1 sequence (P09884 1-1462): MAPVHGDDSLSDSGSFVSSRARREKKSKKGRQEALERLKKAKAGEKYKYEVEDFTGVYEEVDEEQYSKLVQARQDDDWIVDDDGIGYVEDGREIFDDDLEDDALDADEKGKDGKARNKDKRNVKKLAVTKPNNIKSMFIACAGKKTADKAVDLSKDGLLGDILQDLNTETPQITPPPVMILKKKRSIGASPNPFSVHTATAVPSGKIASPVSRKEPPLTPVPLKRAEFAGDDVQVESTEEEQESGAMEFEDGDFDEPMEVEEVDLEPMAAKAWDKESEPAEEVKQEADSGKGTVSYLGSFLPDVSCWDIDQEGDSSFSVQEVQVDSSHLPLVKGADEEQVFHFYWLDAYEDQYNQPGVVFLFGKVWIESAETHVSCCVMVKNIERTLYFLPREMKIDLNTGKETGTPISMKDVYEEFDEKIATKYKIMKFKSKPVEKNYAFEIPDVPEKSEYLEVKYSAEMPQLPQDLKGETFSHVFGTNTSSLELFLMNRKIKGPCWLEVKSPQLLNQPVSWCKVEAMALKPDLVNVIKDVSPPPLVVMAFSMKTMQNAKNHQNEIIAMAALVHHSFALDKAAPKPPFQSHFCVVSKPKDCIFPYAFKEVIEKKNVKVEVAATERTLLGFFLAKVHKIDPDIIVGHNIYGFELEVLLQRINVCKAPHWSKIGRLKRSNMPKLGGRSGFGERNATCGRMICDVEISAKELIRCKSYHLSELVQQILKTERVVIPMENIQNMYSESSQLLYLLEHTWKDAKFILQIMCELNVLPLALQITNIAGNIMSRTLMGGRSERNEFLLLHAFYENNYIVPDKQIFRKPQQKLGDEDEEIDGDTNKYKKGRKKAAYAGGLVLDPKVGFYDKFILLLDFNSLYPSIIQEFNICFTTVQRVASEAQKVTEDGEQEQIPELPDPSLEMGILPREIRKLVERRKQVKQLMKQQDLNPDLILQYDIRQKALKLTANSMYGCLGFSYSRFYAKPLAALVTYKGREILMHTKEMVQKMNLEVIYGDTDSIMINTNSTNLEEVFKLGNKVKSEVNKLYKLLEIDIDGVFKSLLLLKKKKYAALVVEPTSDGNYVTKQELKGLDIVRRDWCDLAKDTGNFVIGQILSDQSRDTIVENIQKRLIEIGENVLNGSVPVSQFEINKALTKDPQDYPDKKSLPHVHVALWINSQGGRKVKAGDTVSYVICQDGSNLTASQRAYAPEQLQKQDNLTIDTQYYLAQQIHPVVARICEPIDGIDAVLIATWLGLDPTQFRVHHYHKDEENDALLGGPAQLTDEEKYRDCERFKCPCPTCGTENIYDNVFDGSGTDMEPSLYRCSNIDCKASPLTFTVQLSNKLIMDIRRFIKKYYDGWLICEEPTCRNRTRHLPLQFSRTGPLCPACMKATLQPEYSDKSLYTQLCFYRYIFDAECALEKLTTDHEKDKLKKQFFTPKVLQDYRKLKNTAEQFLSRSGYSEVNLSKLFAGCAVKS
Text: (§1) Several intracellular targets of the present disclosure were identified as essential enzymes required for the biosynthesis and function of DNA. These enzymes are susceptible for inhibition by a multitude of cellular metabolites of the present disclosure, contributing to the observed cytotoxicity.

[2] = system: KG-1 human acute myeloid leukemia cells; assay: Cell viability assay of Promega, KG-1 cells; type: cell-based; details: for IC50: Homo sapiens, cell viability; for Ratio (IC50-value of capecitabine/IC50-value of test compound): fold potency versus capecitabine
Text: Using the cell viability assay of Promega, the following IC50-values were obtained against KG-1 human acute myeloid leukemia cells (Table 3). The nucleoside carbamate capecitabine (Xeloda®) is included for comparison).

[3] = biological target: thymidylate synthase (TS) (Homo sapiens, UniProt P04818); assay: Enzyme inhibition by intracellular metabolite: thymidylate synthase; type: biochemical; details: major target; inactivation by covalent bond formation at the active site
Chain of thymidylate synthase (TS) (P04818 whole entry): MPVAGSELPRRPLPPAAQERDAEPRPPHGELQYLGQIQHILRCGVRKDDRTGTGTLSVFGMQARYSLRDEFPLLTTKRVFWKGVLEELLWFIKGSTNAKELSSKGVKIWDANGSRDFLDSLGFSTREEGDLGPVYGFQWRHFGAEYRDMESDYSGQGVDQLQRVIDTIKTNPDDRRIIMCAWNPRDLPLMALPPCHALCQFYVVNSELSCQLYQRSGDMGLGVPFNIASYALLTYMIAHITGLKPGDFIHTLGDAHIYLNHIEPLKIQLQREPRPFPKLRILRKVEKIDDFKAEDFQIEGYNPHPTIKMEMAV
Text: as §1
(§2) The inhibition of the enzyme targets, TS, RR, and MTase is irreversible, due to mechanism-based inactivation caused by the inhibitory metabolites. The molecular mechanism of the inactivation involves covalent bond formation with the sulfhydryl groups of the active site cysteine residues essential for enzyme activity (see Examples 6, 7 and 8).
F3dUMP acts as a suicide substrate of the enzyme thymidylate synthase by forming a covalent ternary complex with the enzyme and the cofactor 5,10-methylenetetrahydrofolate. The binding of the inhibitor to the enzyme is by a covalent bond to the SH-group of the active site cysteine residue involved in catalysis: […]

[4] = system: MCF-7; assay: NCI panel growth inhibition, MCF-7; type: cell-based; details: Homo sapiens, MCF7, 10 micromolar
Text: (§3) A sample of the variety of human cancer cell lines, whose growth was inhibited more than 50% by 10 micromolar concentration of the prototype drug 6a, is shown in Table 2.
(§4) The description of the human cancer cell lines used is as follows: ACHN, human renal adenocarcinoma; HL-60(TB), human acute myeloid leukemia; HCT-116, human colon carcinoma; HOP-62, human adenocarcinoma (non-small cell lung cancer); M14, human metastatic malignant melanoma; MCF7, human mammary adenocarcinoma; OVCAR-8, human ovarian carcinoma.

[5] = system: NCI-H522; assay: NCI panel growth inhibition, NCI-H522; type: cell-based; details: Homo sapiens, 10 micromolar
Text: as §3, §4

[6] = system: HCT-116; assay: NCI panel growth inhibition, HCT-116; type: cell-based; details: Homo sapiens, 10 micromolar
Text: as §3, §4

[7] = system: M14; assay: NCI panel growth inhibition, M14; type: cell-based; details: Homo sapiens, 10 micromolar
Text: as §3, §4

[8] = system: human colon cancer HCT-116 cells; assay: HCT-116 xenograft test for in vivo oral anticancer activity; design: species or system mice
Text: This example provides a description of HCT-116 xenograft test for in vivo oral anticancer activity of 6a.
Forty athymic nude mice (NCr nude, female, 5-6 weeks old, 20-25 g, Taconic) were inoculated with 6×10^6 exponentially growing human colon cancer HCT-116 cells, 1:1 ratio with Matrigel in 100 microliter into the right flank. Over the following 10 days, tumors reached a volume of 70 to 130 mm^3. Tumor volume were caliper-measured and calculated as length×width×width/2. Thirty mice were randomly allocated into three groups: (1) vehicle control group, (2) 6a test group, and (3) capecitabine (Cayman Chemical Co.) positive control group, with 10 mice into each group. Dosing solutions of each were prepared and kept refrigerated during the course of the test. Each mouse was dosed daily by oral administration.
After starting the dosing, body weights and tumor size measurements were recorded twice weekly to the end of the test.

[9] = system: HL60; assay: NCI panel growth inhibition, HL60; type: cell-based; details: Homo sapiens, HL-60, 10 micromolar
Text: as §3, §4

[10] = system: OVCAR-8; assay: NCI panel growth inhibition, OVCAR-8; type: cell-based; details: Homo sapiens, 10 micromolar
Text: as §3, §4

[11] = system: ACHN; assay: NCI panel growth inhibition, ACHN; type: cell-based; details: Homo sapiens, 10 micromolar
Text: as §3, §4

[12] = system: National Cancer Institute's panel of human cell lines; assay: National Cancer Institute's panel of human cell lines in culture; type: cell-based; details: 10 micromolar, cell lines of Table 2, read-out: growth inhibition of the sampled human cancer cell lines
Text: as §3

[13] = biological target: T2, deoxycytidylate deaminase (DCTD) (Homo sapiens, UniProt P32321); assay: Enzyme inhibition by intracellular metabolite: deoxycytidylate deaminase; type: biochemical; details: minor target
T2 sequence (P32321 1-178): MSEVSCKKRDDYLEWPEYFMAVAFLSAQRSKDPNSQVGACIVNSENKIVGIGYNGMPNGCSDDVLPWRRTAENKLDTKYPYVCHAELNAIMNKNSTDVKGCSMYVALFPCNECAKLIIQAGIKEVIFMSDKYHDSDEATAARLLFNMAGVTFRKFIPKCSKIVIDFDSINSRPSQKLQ
Text: as §1
Intracellular esterase hydrolysis of the 5′-substituent of Formula I (R″=phosphorodiamidate), followed by cyclization leads to a cyclic phosphoester intermediate that collapses into a monophosphoramidate. Further hydrolysis by the phosphoramidase activity of HINT1 results in the formation of F3dCMP, the first intracellular phosphorylated metabolite of compounds of Formula I that serves as a substrate and competitive inhibitor of the enzyme dCMP deaminase, and is a precursor of all the other inhibitory nucleotides described above (see Table 1).

[14] = system: thymidine phosphorylase
[15] = biological target: T3, ribonucleotide reductase (RR) (Homo sapiens, UniProt P23921); assay: Enzyme inhibition by intracellular metabolite: ribonucleotide reductase; type: biochemical; details: major target; inactivation by covalent bond formation at the active site
T3 sequence (P23921 1-792): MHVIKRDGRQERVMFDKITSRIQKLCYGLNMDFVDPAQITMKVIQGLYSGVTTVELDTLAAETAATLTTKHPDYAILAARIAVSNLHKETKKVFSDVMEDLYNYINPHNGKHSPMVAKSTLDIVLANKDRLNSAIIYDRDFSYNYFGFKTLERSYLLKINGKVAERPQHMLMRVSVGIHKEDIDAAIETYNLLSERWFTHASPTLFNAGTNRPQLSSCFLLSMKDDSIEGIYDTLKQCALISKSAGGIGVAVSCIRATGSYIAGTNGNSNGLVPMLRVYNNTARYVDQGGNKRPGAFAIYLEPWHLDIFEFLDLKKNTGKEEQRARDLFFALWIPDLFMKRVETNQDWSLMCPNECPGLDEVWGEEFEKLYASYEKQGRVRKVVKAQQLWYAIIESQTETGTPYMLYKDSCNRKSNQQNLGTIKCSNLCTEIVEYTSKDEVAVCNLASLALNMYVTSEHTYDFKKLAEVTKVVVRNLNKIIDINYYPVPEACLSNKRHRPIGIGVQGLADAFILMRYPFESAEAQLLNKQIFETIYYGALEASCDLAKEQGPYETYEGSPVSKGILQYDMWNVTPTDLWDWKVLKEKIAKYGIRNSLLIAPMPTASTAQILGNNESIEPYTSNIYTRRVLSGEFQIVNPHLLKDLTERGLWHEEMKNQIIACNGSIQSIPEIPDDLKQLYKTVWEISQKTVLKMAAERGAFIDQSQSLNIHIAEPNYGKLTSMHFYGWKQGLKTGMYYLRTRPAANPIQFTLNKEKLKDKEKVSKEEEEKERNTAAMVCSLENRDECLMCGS
T3 sequence (P31350 1-389 partner): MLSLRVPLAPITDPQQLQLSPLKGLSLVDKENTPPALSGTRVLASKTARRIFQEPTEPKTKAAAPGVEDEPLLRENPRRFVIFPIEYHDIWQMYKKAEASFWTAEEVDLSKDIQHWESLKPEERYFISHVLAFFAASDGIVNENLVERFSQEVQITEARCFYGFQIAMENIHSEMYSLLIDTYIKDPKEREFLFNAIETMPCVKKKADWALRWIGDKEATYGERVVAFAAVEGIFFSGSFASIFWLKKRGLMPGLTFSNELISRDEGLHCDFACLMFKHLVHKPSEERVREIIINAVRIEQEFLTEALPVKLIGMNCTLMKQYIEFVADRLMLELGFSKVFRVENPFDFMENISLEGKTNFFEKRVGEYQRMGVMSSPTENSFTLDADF
Text: as §1, §2
F3dCDP acts as a suicide substrate of the enzyme forming a binary complex between the inhibitor and the enzyme via a covalent bond to the SH-group of the active site cysteine residue: […]

## O=c1[nH]c(=O)n([C@@H]2O[C@H](COP(=O)(O)OP(=O)(O)OP(=O)(O)O)[C@@H](O)C2(F)F)cc1F [Compound F3dUTP, 2′,2′,5-trifluorodeoxyuridine triphosphate]
[1]
  Reversibility of inhibition of Pol α: Irreversible**

## Nc1nc(=O)n([C@@H]2O[C@H](COP(=O)(O)OP(=O)(O)OP(=O)(O)O)[C@@H](O)C2(F)F)cc1F [Compound F3dCTP, 2′,2′,5-trifluorodeoxycytidine triphosphate]
[1]
  Reversibility of inhibition of Pol α: Irreversible**

## Nc1nc(=O)n([C@@H]2O[C@H](CO)[C@@H](O)C2(F)F)cc1F [Compound 5, 2′-Deoxy-2′,2′,5-trifluorocytidine]
[2]
  IC50: 34.1 ± 5.27 nM
  Ratio (IC50-value of capecitabine/IC50-value of test compound): 253

## O=c1[nH]c(=O)n([C@@H]2O[C@H](COP(=O)(O)O)[C@@H](O)C2(F)F)cc1F [Compound F3dUMP, 2′,2′,5-trifluorodeoxyuridine monophosphate]
[3]
  Reversibility of inhibition of TS: Irreversible*

## CCCCCOC(=O)Nc1nc(=O)n([C@@H]2O[C@H](CO)[C@@H](O)C2(F)F)cc1F [Compound 6a, N^4-Pentyloxycarbonyl-2′-deoxy-2′,2′,5-trifluorocytidine]
[4]
  inhibition at 10 µM: 51.9%
[5]
  inhibition at 10 µM: 61.1%
[6]
  inhibition at 10 µM: 63.5%
[7]
  inhibition at 10 µM: 85.9%
[8]; athymic nude mice, daily oral dosing, 25 mg/kg
  in vivo oral anticancer activity (growth of human colon cancer in mice): orally active in vivo
[9]
  inhibition at 10 µM: 75.8%
[2]
  IC50: 129 ± 10.7 nM
  Ratio (IC50-value of capecitabine/IC50-value of test compound): 69
[10]
  inhibition at 10 µM: 71.6%
[11]
  inhibition at 10 µM: 86.4%
[12]
  inhibition at 10 µM: > 50%

## Nc1nc(=O)n([C@@H]2O[C@H](COP(=O)(O)O)[C@@H](O)C2(F)F)cc1F [Compound F3dCMP, 2′,2′,5-trifluorodeoxycytidine monophosphate]
[13]
  Reversibility of inhibition of DCTD: reversible

## CCCCCOC(=O)Nc1nc(=O)n([C@@H]2O[C@H](C)[C@@H](O)[C@H]2O)cc1F [Capecitabine, capecitabine, reference compound]
[8]; capecitabine 100 mg/kg vs 6a 25 mg/kg, oral
  dose of capecitabine required for anticancer activity comparable to 6a, relative to dose of 6a: about 4 times
[2]
  IC50: 8920 ± 1540 nM
  Ratio (IC50-value of capecitabine/IC50-value of test compound): 1

## O=c1[nH]c(=O)n([C@H]2C[C@H](O)[C@@H](CO)O2)cc1C(F)(F)F [Compound F3dUrd]
[14]
  substrate activity for thymidine phosphorylase (cleavage to produce FU): did not serve as a substrate for thymidine phosphorylase

## Nc1nc(=O)n([C@@H]2O[C@H](COP(=O)(O)OP(=O)(O)O)[C@@H](O)C2(F)F)cc1F [Compound F3dCDP, 2′,2′,5-trifluorodeoxycytidine diphosphate]
[15]
  Reversibility of inhibition of RR: Irreversible*

## O=c1[nH]c(=O)n([C@H]2C[C@H](O)[C@@H](CO)O2)cc1F [Floxuridine, reference compound]
[14]
  substrate activity for thymidine phosphorylase (cleavage to produce FU): rapidly cleaved by thymidine phosphorylase to produce FU
